Legend:
[1] = target: biotinylated Avi-POLθ[2-894] (Homo sapiens (Human), UniProt O75417); assay: POLθ ATPase assay (ADP-Glo); conditions: n=2; read-out: Biochemical ATPase ADPGlo IC50
DLD1 BRCA2 (−/−) cells = assay: 7-day cell viability assay (CellTiter-Glo), DLD1 BRCA2 (−/−); assay type: cell-based, human; conditions: Homo sapiens, DLD-1, 168 h, 7-day viability, n=2, read-out: Viability IC50 (uM) DLD1 BRCA2 null
Method in brief: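 7-day growth assay in DLD1 cells with or without BRCA2; seeding densities chosen to keep log-linear growth. Compound: 10 uM top, 3-fold, 9 points. Endpoint: CTG ATP luminescence at RT.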

DLD1 WT cells = assay: 7-day cell viability assay (CellTiter-Glo), DLD1 parental (WT); assay type: cell-based, human; conditions: Homo sapiens, DLD-1, 168 h, 7-day viability, n=2

Sequence of biotinylated Avi-POLθ[2-894] (O75417 2-894): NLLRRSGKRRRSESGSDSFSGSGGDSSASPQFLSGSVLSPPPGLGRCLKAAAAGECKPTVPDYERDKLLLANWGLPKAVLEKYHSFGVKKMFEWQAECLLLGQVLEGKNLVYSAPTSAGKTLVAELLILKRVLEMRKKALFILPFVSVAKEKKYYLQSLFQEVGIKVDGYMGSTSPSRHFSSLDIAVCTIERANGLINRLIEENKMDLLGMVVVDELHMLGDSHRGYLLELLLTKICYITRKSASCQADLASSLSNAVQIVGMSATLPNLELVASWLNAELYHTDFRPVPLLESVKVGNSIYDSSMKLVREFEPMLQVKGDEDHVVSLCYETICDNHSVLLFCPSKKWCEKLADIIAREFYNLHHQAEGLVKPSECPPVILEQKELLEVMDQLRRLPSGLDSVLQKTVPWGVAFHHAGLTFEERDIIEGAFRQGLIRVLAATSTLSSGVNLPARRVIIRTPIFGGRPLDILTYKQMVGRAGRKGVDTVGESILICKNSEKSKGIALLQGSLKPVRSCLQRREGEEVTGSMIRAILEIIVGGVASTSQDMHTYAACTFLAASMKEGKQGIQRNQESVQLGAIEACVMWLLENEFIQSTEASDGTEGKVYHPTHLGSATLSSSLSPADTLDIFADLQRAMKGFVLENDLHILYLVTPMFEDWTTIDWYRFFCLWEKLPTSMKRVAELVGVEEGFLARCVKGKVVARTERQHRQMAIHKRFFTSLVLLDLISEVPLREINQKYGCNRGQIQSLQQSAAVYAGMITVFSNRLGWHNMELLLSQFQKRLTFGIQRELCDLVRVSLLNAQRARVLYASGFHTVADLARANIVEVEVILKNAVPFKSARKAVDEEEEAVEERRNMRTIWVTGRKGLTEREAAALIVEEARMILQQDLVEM

SMILES	IC50 [1] [nM]	IC50 (DLD1 BRCA2 (−/−) cells) [µM]	IC50 (DLD1 WT cells) [µM]
COc1cnc(Cl)cc1-c1cc(C)ncc1C(=O)Nc1nc2c(s1)CN(C(=O)c1cccc(C(F)F)n1)C2 [Example 18, 2′-chloro-N-(5-(6-(difluoromethyl)picolinoyl)-5,6-dihydro-4H-pyrrolo[3,4-d]thiazol-2-yl)-5′-methoxy-6-methyl-[4,4′-bipyridine]-3-carboxamide]	1 to 15	0.001 to 0.1	5 to 10
COc1cnc(Cl)cc1-c1cc(C)ncc1C(=O)Nc1nc2c(s1)CN(C(=O)c1cnccc1Cl)C2 [Example 19, 2′-chloro-N-(5-(4-chloronicotinoyl)-5,6-dihydro-4H-pyrrolo[3,4-d]thiazol-2-yl)-5′-methoxy-6-methyl-[4,4′-bipyridine]-3-carboxamide]	1 to 15	0.001 to 0.1	≥ 10
COc1cnc(Cl)cc1-c1cc(C)ncc1C(=O)Nc1nc2c(s1)CN(C(=O)c1cccc(C(F)(F)F)n1)C2 [Example 21, 2′-chloro-5′-methoxy-6-methyl-N-(5-(6-(trifluoromethyl)picolinoyl)-5,6-dihydro-4H-pyrrolo[3,4-d]thiazol-2-yl)-[4,4′-bipyridine]-3-carboxamide]	1 to 15	0.001 to 0.1	≥ 10
COc1cnc(Cl)cc1-c1cc(C)ncc1C(=O)Nc1nc2c(s1)CN(C(=O)[C@H]1C[C@H](OC(F)(F)F)C1)C2 [Example 26, 2′-chloro-5′-methoxy-6-methyl-N-(5-((1r,3r)-3-(trifluoromethoxy)cyclobutane-1-carbonyl)-5,6-dihydro-4H-pyrrolo[3,4-d]thiazol-2-yl)-[4,4′-bipyridine]-3-carboxamide]	1 to 15	0.001 to 0.1	5 to 10
COc1cnc(Cl)cc1-c1cc(C)ncc1C(=O)Nc1nc2c(s1)CN(C(=O)c1cncc(Cl)c1)C2 [Example 28, 2′-chloro-N-(5-(5-chloronicotinoyl)-5,6-dihydro-4H-pyrrolo[3,4-d]thiazol-2-yl)-5′-methoxy-6-methyl-[4,4′-bipyridine]-3-carboxamide]	1 to 15	0.001 to 0.1	0.5 to 2
COc1cnc(Cl)cc1-c1cc(C)ncc1C(=O)Nc1nc2c(s1)CN(C(=O)c1ncc(Cl)cn1)C2 [Example 35, 2′-chloro-N-(5-(5-chloropyrimidine-2-carbonyl)-5,6-dihydro-4H-pyrrolo[3,4-d]thiazol-2-yl)-5′-methoxy-6-methyl-[4,4′-bipyridine]-3-carboxamide]	1 to 15	0.001 to 0.1	2 to 5
COc1cnc(Cl)cc1-c1cc(C)ncc1C(=O)Nc1nc2c(s1)CN(C(=O)c1cnc(C(F)F)cc1Cl)C2 [Example 36, 2′-chloro-N-(5-(4-chloro-6-(difluoromethyl)nicotinoyl)-5,6-dihydro-4H-pyrrolo[3,4-d]thiazol-2-yl)-S′-methoxy-6-methyl-[4,4′-bipyridine]-3-carboxamide]	1 to 15	0.001 to 0.1	≥ 10
COc1cnc(Cl)cc1-c1cc(C)ncc1C(=O)Nc1nc2c(s1)CN(C(=O)c1ncc(C(F)(F)F)cn1)C2 [Example 37, 2′-chloro-5′-methoxy-6-methyl-N-(5-(5-(trifluoromethyl)pyrimidine-2-carbonyl)-5,6-dihydro-4H-pyrrolo[3,4-d]thiazol-2-yl)-[4,4′-bipyridine]-3-carboxamide]	1 to 15	0.001 to 0.1	≥ 10
COc1cnc(Cl)cc1-c1cc(C)ncc1C(=O)Nc1nc2c(s1)CN(C(=O)c1ncc(C(F)(F)F)cc1OC)C2 [Example 38, 2′-chloro-5′-methoxy-N-(5-(3-methoxy-5-(trifluoromethyl)picolinoyl)-5,6-dihydro-4H-pyrrolo[3,4-d]thiazol-2-yl)-6-methyl-[4,4′-bipyridine]-3-carboxamide]	1 to 15	0.001 to 0.1	≥ 10
COc1cnc(Cl)cc1-c1cc(C)ncc1C(=O)Nc1nc2c(s1)CN(C(=O)c1cccnc1C(F)F)C2 [Example 39, 2′-chloro-N-(5-(2-(difluoromethyl)nicotinoyl)-5,6-dihydro-4H-pyrrolo[3,4-d]thiazol-2-yl)-5′-methoxy-6-methyl-[4,4′-bipyridine]-3-carboxamide]	1 to 15	0.001 to 0.1	≥ 10
COc1cnc(Cl)cc1-c1cc(C)ncc1C(=O)Nc1nc2c(s1)CN(C(=O)c1cnc(C(F)F)cn1)C2 [Example 40, 2′-chloro-N-(5-(5-(difluoromethyl)pyrazine-2-carbonyl)-5,6-dihydro-4H-pyrrolo[3,4-d]thiazol-2-yl)-5′-methoxy-6-methyl-[4,4′-bipyridine]-3-carboxamide]	1 to 15	0.001 to 0.1	5 to 10

Further lines, with some results ahead:

IC50 [1] [nM]	IC50 (DLD1 BRCA2 (−/−) cells) [µM]	SMILES	IC50 (DLD1 WT cells) [µM]
1 to 15	0.001 to 0.1	COc1cnc(Cl)cc1-c1cc(C)ncc1C(=O)Nc1nc2c(s1)CN(C(=O)c1c(C)nn(C)c1C(F)F)C2 [Example 6, 2′-chloro-N-(5-(5-(difluoromethyl)-1,3-dimethyl-1H-pyrazole-4-carbonyl)-5,6-dihydro-4H-pyrrolo[3,4-d]thiazol-2-yl)-5′-methoxy-6-methyl-[4,4′-bipyridine]-3-carboxamide]	≥ 10
1 to 15	0.001 to 0.1	COc1cnc(Cl)cc1-c1cc(C)ncc1C(=O)Nc1nc2c(s1)CN(C(=O)c1cccc(Cl)n1)C2 [Example 7, 2′-chloro-N-(5-(6-chloropicolinoyl)-5,6-dihydro-4H-pyrrolo[3,4-d]thiazol-2-yl)-5′-methoxy-6-methyl-[4,4′-bipyridine]-3-carboxamide]	2 to 5
1 to 15	0.001 to 0.1	COc1cnc(Cl)cc1-c1cc(C)ncc1C(=O)Nc1nc2c(s1)CN(C(=O)C1CC3(CCC3)C1)C2 [Example 8, 2′-chloro-5′-methoxy-6-methyl-N-(5-(spiro[3.3]heptane-2-carbonyl)-5,6-dihydro-4H-pyrrolo[3,4-d]thiazol-2-yl)-[4,4′-bipyridine]-3-carboxamide]	5 to 10
1 to 15	0.001 to 0.1	COc1cnc(Cl)cc1-c1cc(C)ncc1C(=O)Nc1nc2c(s1)CN(C(=O)c1ccc(C(F)F)cn1)C2 [Example 9, 2′-chloro-N-(5-(5-(difluoromethyl)picolinoyl)-5,6-dihydro-4H-pyrrolo[3,4-d]thiazol-2-yl)-5′-methoxy-6-methyl-[4,4′-bipyridine]-3-carboxamide]	≥ 10
1 to 15	0.001 to 0.1	COc1cnc(Cl)cc1-c1cc(C)ncc1C(=O)Nc1nc2c(s1)CN(C(=O)[C@H]1C[C@@H](OC(F)F)C1)C2 [Example 10, 2′-chloro-N-(5-((1s,3s)-3-(difluoromethoxy)cyclobutane-1-carbonyl)-5,6-dihydro-4H-pyrrolo[3,4-d]thiazol-2-yl)-5′-methoxy-6-methyl-[4,4′-bipyridine]-3-carboxamide]	≥ 10
1 to 15	0.001 to 0.1	COc1cnc(Cl)cc1-c1cc(C)ncc1C(=O)Nc1nc2c(s1)CN(C(=O)c1ccc(Cl)cn1)C2 [Example 11, 2′-chloro-N-(5-(5-chloropicolinoyl)-5,6-dihydro-4H-pyrrolo[3,4-d]thiazol-2-yl)-5′-methoxy-6-methyl-[4,4′-bipyridine]-3-carboxamide]	2 to 5
1 to 15	0.001 to 0.1	COc1cnc(Cl)cc1-c1cc(C)ncc1C(=O)Nc1nc2c(s1)CN(C(=O)c1ccc(C(F)F)nc1)C2 [Example 12, 2′-chloro-N-(5-(6-(difluoromethyl)nicotinoyl)-5,6-dihydro-4H-pyrrolo[3,4-d]thiazol-2-yl)-5′-methoxy-6-methyl-[4,4′-bipyridine]-3-carboxamide]	≥ 10
1 to 15	0.001 to 0.1	COc1cnc(Cl)cc1-c1cc(C)ncc1C(=O)Nc1nc2c(s1)CN(C(=O)c1ccc(Cl)nc1)C2 [Example 13, 2′-chloro-N-(5-(6-chloronicotinoyl)-5,6-dihydro-4H-pyrrolo[3,4-d]thiazol-2-yl)-5′-methoxy-6-methyl-[4,4′-bipyridine]-3-carboxamide]	≥ 10
1 to 15	0.001 to 0.1	COc1cnc(Cl)cc1-c1cc(C)ncc1C(=O)Nc1nc2c(s1)CN(C(=O)c1ccc(C(F)(F)F)nn1)C2 [Example 14, 2′-chloro-5′-methoxy-6-methyl-N-(5-(6-(trifluoromethyl)pyridazine-3-carbonyl)-5,6-dihydro-4H-pyrrolo[3,4-d]thiazol-2-yl)-[4,4′-bipyridine]-3-carboxamide]	≥ 10
1 to 15	0.001 to 0.1	COc1cnc(Cl)cc1-c1cc(C)ncc1C(=O)Nc1nc2c(s1)CN(C(=O)c1ccc(C(F)(F)F)nc1OC)C2 [Example 15, 2′-chloro-5′-methoxy-N-(5-(2-methoxy-6-(trifluoromethyl)nicotinoyl)-5,6-dihydro-4H-pyrrolo[3,4-d]thiazol-2-yl)-6-methyl-[4,4′-bipyridine]-3-carboxamide]	5 to 10
1 to 15	0.001 to 0.1	COc1cnc(Cl)cc1-c1cc(C)ncc1C(=O)Nc1nc2c(s1)CN(C(=O)c1ncc(C(F)(F)F)cc1Cl)C2 [Example 16, 2′-chloro-N-(5-(3-chloro-5-(trifluoromethyl)picolinoyl)-5,6-dihydro-4H-pyrrolo[3,4-d]thiazol-2-yl)-5′-methoxy-6-methyl-[4,4′-bipyridine]-3-carboxamide]	≥ 10
1 to 15	0.001 to 0.1	COc1cnc(Cl)cc1-c1cc(C)ncc1C(=O)Nc1nc2c(s1)CN(C(=O)c1cc(C)n(C)n1)C2 [Example 17, 2′-chloro-N-(5-(1,5-dimethyl-1H-pyrazole-3-carbonyl)-5,6-dihydro-4H-pyrrolo[3,4-d]thiazol-2-yl)-5′-methoxy-6-methyl-[4,4′-bipyridine]-3-carboxamide]	0.001 to 0.5

Source: patent publication US20250230171A1 (MOMA Therapeutics, Inc., priority 2023, published 2025)
